Experimental data: patent US5703113A, “Benzopyran derivatives” (priority 1992, dated 1997)

Experiments:
[1] = tested on: potassium canal (isolated arteria mesenterica anterior); experiment: Potassium canal binding ("bandage") and selectivity on isolated arteria mesenterica anterior of rabbits; settings: isolated rabbit mesenteric artery; KCl vs adrenaline contraction, TEA medium
Procedure: 1. […] Rabbits of both sexes weighing 2000-2500 g were anesthetized by a hit at the nape, the abdominal wall was cut open and the arteria mesenterica anterior was mounted after exsanguination. The artery was put into a Krebs solution of a temperature of 37° C. infiltrated with carbogene while removing the interstitial residues. Then a 2 mm wide spiral is cut from the artery and this artery stripe is prestretched in an organ pot in Krebs solution of a temperature of 37° C., infiltrated with carbogene, by a stretching of 0.5 g. In the experiment Hugo Basile type dynamometer heads, Hugo Basile type amplifiers and Perkin Elmer type potentiometer have been used for amplifying and fixing the signs. Two parallel organs were used for the qualitative tests. One of them was contracted by adding 30 mmoles of KCl after an incubation time of 1 hour, the other one by 5 μmoles of adrenaline. Then the arteries were relaxed by the cumulative addition of the substance to be examined. The system was washed with a Krebs solution containing 30 mmoles of tetraethyl ammonium bromide (TEA) and the organs were incubated for 30 minutes in a TEA-containing medium. After incubation the organs were again contracted with potassium and noradrenaline and a dilatation was induced by using the substance to be examined. In a quantitative test organs contracted with 5 μmoles of noradrenaline were relaxed with the substance to be examined and the dose inducing a 50% dilatation was determined.

normotensive rats = experiment: Decrease of blood pressure on normotensive rats measured by average arterial tension; assay type: in vivo, Wistar rats; parameters: Pulse: unit not given beside the values; Average arterial tension / Decrease (of average arterial tension): unit not given here
Procedure: 2. Decrease of blood pressure on normotensive rats measured by average arterial tension
Wistar rats of both sexes weighing 230-260 g were used in the experiments. The rats were narcotised by 40 mg/kg of pentobarbital. The trachea was mounted and a polyethylene canula was introduced into the trachea, vena jugularis sinester and to the arteria carotis communis sinester. The substances to be examined were introduced into the organism of the animal through the duodenum. The pulsatory, systolic and diastolic blood pressure and the pulse were continuously measured by using a Statham type tensiometer head and haemodynamic measuring system produced by the Hungarian firm Experimetria Kft. After the blood pressure has become stable 0.75 μg of adrenaline were administered intravenously to measure the effect of alpha-adrenergic receptors on the blood pressure. After the hypertension has ceased 0.1 μg/kg of isoproterenole is added in order to characterize the activity of the β-adrenerg receptors. After tachycardia has ceased the test compound was administered i.d. and the treatment with the receptor stimulants was repeated after an hour in order to characterize the effect of the test compound on adrenergic receptor subclasses.
Change of the blood pressure on normotensive rats measured on six test animals

[2] = 1 mg/kg i.d., time 0 min (baseline)
[3] = 5 mg/kg i.d., time 0 min (baseline)
[4] = 10 mg/kg i.d., time 0 min (baseline)

In the case of COc1cc2c(cc1OC)[C@@H](N1CCCC1=O)[C@H](O)C(C)(C)O2 (racemic) [Example 1, (+/-)-6,7-dimethoxy-3,4-dihydro-2,2-dimethyl-trans-4-(2-oxo-1-pyrrolidinyl)-2H-benzo(b)pyran-3-ol], the Mechanism of effect [1] is reported as “Potassium canal activator”, the Selectivity [1] is reported as “selective” and the Average arterial tension (normotensive rats; [2]) is reported as 107 ± 11. For the same molecule, the Pulse (normotensive rats; [2]) was 394 ± 27, the Average arterial tension (normotensive rats; 1 mg/kg i.d., time 1 min) was 56 ± 6 and the “Decrease (of average arterial tension)” value (normotensive rats; 1 mg/kg i.d., time 1 min) was -51. The Pulse (normotensive rats; 1 mg/kg i.d., time 1 min) was 403 ± 34, the Average arterial tension (normotensive rats; 1 mg/kg i.d., time 10 min) was 56 ± 6 and the “Decrease (of average arterial tension)” value (normotensive rats; 1 mg/kg i.d., time 10 min) was -51. For the same molecule, the Pulse (normotensive rats; 1 mg/kg i.d., time 10 min) was 400 ± 31, the Average arterial tension (normotensive rats; 1 mg/kg i.d., time 30 min) was 49 ± 4 and the “Decrease (of average arterial tension)” value (normotensive rats; 1 mg/kg i.d., time 30 min) was -45. The Pulse (normotensive rats; 1 mg/kg i.d., time 30 min) was 400 ± 31, the Average arterial tension (normotensive rats; 1 mg/kg i.d., time 60 min) was 71 ± 20 and the “Decrease (of average arterial tension)” value (normotensive rats; 1 mg/kg i.d., time 60 min) was -36. It also gave a Pulse (normotensive rats; 1 mg/kg i.d., time 60 min) of 382 ± 31.

COc1cc2c(cc1Cl)[C@@H](N1CCCC1=O)[C@H](O)C(C)(C)O2 (racemic) [Example 10, (+/-)-6-chloro-7-methoxy-3,4-dihydro-2,2-dimethyl-trans-4-(2-oxo-1-pyrrolidinyl)-2H-benzo (b) pyran-3-ol] was tested, and the Mechanism of effect [1] was “Potassium canal activator”, the Selectivity [1] was “selective” and the Average arterial tension (normotensive rats; [3]) was 108 ± 15. The Pulse (normotensive rats; [3]) was 402 ± 4, the Average arterial tension (normotensive rats; 5 mg/kg i.d., time 1 min) was 62 ± 3 and the “Decrease (of average arterial tension)” value (normotensive rats; 5 mg/kg i.d., time 1 min) was -46. For the same molecule, the Pulse (normotensive rats; 5 mg/kg i.d., time 1 min) was 418 ± 18, the Average arterial tension (normotensive rats; 5 mg/kg i.d., time 10 min) was 68 ± 6 and the “Decrease (of average arterial tension)” value (normotensive rats; 5 mg/kg i.d., time 10 min) was -40. The Pulse (normotensive rats; 5 mg/kg i.d., time 10 min) was 436 ± 18, the Average arterial tension (normotensive rats; 5 mg/kg i.d., time 30 min) was 96 ± 15 and the “Decrease (of average arterial tension)” value (normotensive rats; 5 mg/kg i.d., time 30 min) was -12. For the same molecule, the Pulse (normotensive rats; 5 mg/kg i.d., time 30 min) was 424 ± 10, the Average arterial tension (normotensive rats; 5 mg/kg i.d., time 60 min) was 109 ± 26 and the “Decrease (of average arterial tension)” value (normotensive rats; 5 mg/kg i.d., time 60 min) was “+1”. It also gave a Pulse (normotensive rats; 5 mg/kg i.d., time 60 min) of 396 ± 13.

COc1cc2c(cc1C#N)[C@@H](N1CCCC1=O)[C@H](O)C(C)(C)O2 (racemic) [Example 15, (+/-)-6-cyano-7-methoxy-3,4-dihydro-2,2-dimethyl-trans-4-(2-oxo-1-pyrrolidinyl)-2H-benzo (b) pyran-3-ol] was tested, and the Mechanism of effect [1] was “Potassium canal activator”, the Selectivity [1] was “selective” and the Average arterial tension (normotensive rats; [2]) was 125 ± 13. For the same molecule, the Pulse (normotensive rats; [2]) was 412 ± 45, the Average arterial tension (normotensive rats; 1 mg/kg i.d., time 1 min) was 92 ± 10 and the “Decrease (of average arterial tension)” value (normotensive rats; 1 mg/kg i.d., time 1 min) was -33. The Pulse (normotensive rats; 1 mg/kg i.d., time 1 min) was 439 ± 42, the Average arterial tension (normotensive rats; 1 mg/kg i.d., time 10 min) was 103 ± 5 and the “Decrease (of average arterial tension)” value (normotensive rats; 1 mg/kg i.d., time 10 min) was -22. The Pulse (normotensive rats; 1 mg/kg i.d., time 10 min) was 430 ± 45, the Average arterial tension (normotensive rats; 1 mg/kg i.d., time 30 min) was 118 ± 15 and the “Decrease (of average arterial tension)” value (normotensive rats; 1 mg/kg i.d., time 30 min) was -7. For the same molecule, the Pulse (normotensive rats; 1 mg/kg i.d., time 30 min) was 430 ± 45, the Average arterial tension (normotensive rats; 1 mg/kg i.d., time 60 min) was 122 ± 10 and the “Decrease (of average arterial tension)” value (normotensive rats; 1 mg/kg i.d., time 60 min) was -3. The Pulse (normotensive rats; 1 mg/kg i.d., time 60 min) was 412 ± 37.

COc1cc2c(cc1Br)[C@@H](N1CCCC1=O)[C@H](O)C(C)(C)O2 (relative stereo) [Example 9, (+/-) 16-bromo-7-methoxy-3,4-dihydro-2,2-dimethyl-trans-4-(2-oxo-1-pyrrolidinyl)-2H-benzo (b) pyran-3-ol] was tested, and the Mechanism of effect [1] was “Potassium canal activator”, the Selectivity [1] was “selective” and the Average arterial tension (normotensive rats; [4]) was 117 ± 19. For the same molecule, the Pulse (normotensive rats; [4]) was 406 ± 51, the Average arterial tension (normotensive rats; 10 mg/kg i.d., time 1 min) was 119 ± 16 and the “Decrease (of average arterial tension)” value (normotensive rats; 10 mg/kg i.d., time 1 min) was “+2”. The Pulse (normotensive rats; 10 mg/kg i.d., time 1 min) was 406 ± 51, the Average arterial tension (normotensive rats; 10 mg/kg i.d., time 10 min) was 58 ± 5 and the “Decrease (of average arterial tension)” value (normotensive rats; 10 mg/kg i.d., time 10 min) was -59. The Pulse (normotensive rats; 10 mg/kg i.d., time 10 min) was 436 ± 62, the Average arterial tension (normotensive rats; 10 mg/kg i.d., time 30 min) was 65 ± 15 and the “Decrease (of average arterial tension)” value (normotensive rats; 10 mg/kg i.d., time 30 min) was -52. The Pulse (normotensive rats; 10 mg/kg i.d., time 30 min) was 430 ± 63, the Average arterial tension (normotensive rats; 10 mg/kg i.d., time 60 min) was 87 ± 18 and the “Decrease (of average arterial tension)” value (normotensive rats; 10 mg/kg i.d., time 60 min) was -30. The Pulse (normotensive rats; 10 mg/kg i.d., time 60 min) was 430 ± 63.

With COc1cc2c(cc1[N+](=O)[O-])[C@@H](N1CCCC1=O)[C@H](O)C(C)(C)O2 (relative stereo) [Example 11] the Mechanism of effect [1] was “Potassium canal activator”, the Selectivity [1] was “selective” and the Average arterial tension (normotensive rats; [2]) was 121 ± 21. The Pulse (normotensive rats; [2]) was 388 ± 10, the Average arterial tension (normotensive rats; 1 mg/kg i.d., time 1 min) was 115 ± 11 and the “Decrease (of average arterial tension)” value (normotensive rats; 1 mg/kg i.d., time 1 min) was -6. For the same molecule, the Pulse (normotensive rats; 1 mg/kg i.d., time 1 min) was 373 ± 15, the Average arterial tension (normotensive rats; 1 mg/kg i.d., time 10 min) was 97 ± 23 and the “Decrease (of average arterial tension)” value (normotensive rats; 1 mg/kg i.d., time 10 min) was -24. The Pulse (normotensive rats; 1 mg/kg i.d., time 10 min) was 394 ± 20, the Average arterial tension (normotensive rats; 1 mg/kg i.d., time 30 min) was 105 ± 18 and the “Decrease (of average arterial tension)” value (normotensive rats; 1 mg/kg i.d., time 30 min) was -16. The Pulse (normotensive rats; 1 mg/kg i.d., time 30 min) was 382 ± 18, the Average arterial tension (normotensive rats; 1 mg/kg i.d., time 60 min) was 107 ± 12 and the “Decrease (of average arterial tension)” value (normotensive rats; 1 mg/kg i.d., time 60 min) was -14. It also gave a Pulse (normotensive rats; 1 mg/kg i.d., time 60 min) of 382 ± 18.

For CC1(C)Oc2ccc(C#N)cc2C(N2CCCC2=O)C1O (stereo not drawn) [BRL 34915, reference compound], the Mechanism of effect [1] was “Potassium canal activator”, the Selectivity [1] was “selective” and the Average arterial tension (normotensive rats; [2]) was 112 ± 9. For the same molecule, the Pulse (normotensive rats; [2]) was 368 ± 44, the Average arterial tension (normotensive rats; 1 mg/kg i.d., time 1 min) was 45 ± 2 and the “Decrease (of average arterial tension)” value (normotensive rats; 1 mg/kg i.d., time 1 min) was -67. For the same molecule, the Pulse (normotensive rats; 1 mg/kg i.d., time 1 min) was 368 ± 31, the Average arterial tension (normotensive rats; 1 mg/kg i.d., time 10 min) was 45 ± 2 and the “Decrease (of average arterial tension)” value (normotensive rats; 1 mg/kg i.d., time 10 min) was -67. For the same molecule, the Pulse (normotensive rats; 1 mg/kg i.d., time 10 min) was 382 ± 25, the Average arterial tension (normotensive rats; 1 mg/kg i.d., time 30 min) was 49 ± 4 and the “Decrease (of average arterial tension)” value (normotensive rats; 1 mg/kg i.d., time 30 min) was -63. The Pulse (normotensive rats; 1 mg/kg i.d., time 30 min) was 377 ± 19, the Average arterial tension (normotensive rats; 1 mg/kg i.d., time 60 min) was 61 ± 11 and the “Decrease (of average arterial tension)” value (normotensive rats; 1 mg/kg i.d., time 60 min) was -51. For the same molecule, the Pulse (normotensive rats; 1 mg/kg i.d., time 60 min) was 373 ± 12.
